# Measured values: ChEMBL document CHEMBL1914411, “Synthesis of lipophilic dimeric C-7/C-7-linked ciprofloxacin and C-6/C-6-linked levofloxacin derivatives. Versatile in vitro biological evaluations of monomeric and dimeric fluoroquinolone derivatives as potential antitumor, antibacterial or antimycobacterial agents” (Eur J Med Chem, 2011)
# The source made the active and inactive calls. No rule for the calls is given here.
# Key:
# Staphylococcus aureus [1] = test: Antimicrobial activity against Staphylococcus aureus CIP 4.83 after 18 to 24 hrs by broth microdilution method; format: functional
# Enterococcus hirae = test: Antimicrobial activity against Enterococcus hirae CIP 5855 after 18 to 24 hrs by broth microdilution method; format: functional
# Pseudomonas aeruginosa = test: Antimicrobial activity against Pseudomonas aeruginosa CIP 82.118 after 18 to 24 hrs by broth microdilution method; format: functional
# Escherichia coli = test: Antimicrobial activity against Escherichia coli CIP 53126 after 18 to 24 hrs by broth microdilution method; format: functional
# [2] = tested on: Mycobacterium tuberculosis; test: Antimycobacterial activity against Mycobacterium tuberculosis H37Rv assessed as growth inhibition at 0.1 uM after 6 days by MTT colorimetric microassay; format: functional, organism-based
# Staphylococcus aureus [3] = test: Antimicrobial activity against methicillin-resistant Staphylococcus aureus ATCC 33591 after 18 to 24 hrs by broth microdilution method; format: functional
# Staphylococcus aureus [4] = test: Antimicrobial activity against methicillin-resistant Staphylococcus aureus ATCC 33592 after 18 to 24 hrs by broth microdilution method; format: functional
# Staphylococcus aureus [5] = test: Antimicrobial activity against multidrug-resistant Staphylococcus aureus isolate 1 after 18 to 24 hrs by broth microdilution method; format: functional
# Staphylococcus aureus [6] = test: Antimicrobial activity against multidrug-resistant Staphylococcus aureus isolate 2 after 18 to 24 hrs by broth microdilution method; format: functional
smiles,measurement,setting,value
O=C(O)c1cn(C2CC2)c2cc(N3CCN(C(=O)CCCCCCCCCCCCCCC(=O)N4CCN(c5cc6c(cc5F)c(=O)c(C(=O)O)cn6C5CC5)CC4)CC3)c(F)cc2c1=O,MBC,Staphylococcus aureus [1],15.6 µM
same,MIC,Staphylococcus aureus [1],1.9 µM
same,MBC,Enterococcus hirae,500 µM
same,MIC,Enterococcus hirae,62.5 µM
same,MBC,Pseudomonas aeruginosa,250 µM
same,MIC,Pseudomonas aeruginosa,62.5 µM
same,MBC,Escherichia coli,500 µM
same,MIC,Escherichia coli,62.5 µM
same,growth inhibition (GI),[2],inactive
CC(C)(C)OC(=O)N1CCN(c2cc3c(cc2F)c(=O)c(C(=O)O)cn3C2CC2)CC1,MBC,Staphylococcus aureus [1],≤ 0.24 µM
same,MIC,Staphylococcus aureus [1],≤ 0.12 µM
same,MBC,Enterococcus hirae,15.6 µM
same,MIC,Enterococcus hirae,15.6 µM
same,MBC,Pseudomonas aeruginosa,250 µM
same,MIC,Pseudomonas aeruginosa,15.6 µM
same,MBC,Escherichia coli,1.9 µM
same,MIC,Escherichia coli,1.9 µM
same,MBC,Staphylococcus aureus [3],0.48 µM
same,MIC,Staphylococcus aureus [3],0.06 µM
same,MBC,Staphylococcus aureus [4],0.48 µM
same,MIC,Staphylococcus aureus [4],0.12 µM
same,MBC,Staphylococcus aureus [5],500 µM
same,MIC,Staphylococcus aureus [5],31.2 µM
same,MBC,Staphylococcus aureus [6],31.2 µM
same,MIC,Staphylococcus aureus [6],15.6 µM
same,growth inhibition (GI),[2],inactive
O=C(O)c1cn(C2CC2)c2cc(N3CCN(C(=O)Cc4ccccc4)CC3)c(F)cc2c1=O,MBC,Staphylococcus aureus [1],≤ 0.24 µM
same,MIC,Staphylococcus aureus [1],≤ 0.12 µM
same,MBC,Enterococcus hirae,7.8 µM
same,MIC,Enterococcus hirae,3.9 µM
same,MBC,Pseudomonas aeruginosa,250 µM
same,MIC,Pseudomonas aeruginosa,62.5 µM
same,MBC,Escherichia coli,7.8 µM
same,MIC,Escherichia coli,3.9 µM
same,MBC,Staphylococcus aureus [3],0.24 µM
same,MIC,Staphylococcus aureus [3],0.12 µM
same,MBC,Staphylococcus aureus [4],0.24 µM
same,MIC,Staphylococcus aureus [4],0.12 µM
same,MBC,Staphylococcus aureus [5],62.5 µM
same,MIC,Staphylococcus aureus [5],31.2 µM
same,MBC,Staphylococcus aureus [6],15.6 µM
same,MIC,Staphylococcus aureus [6],15.6 µM
same,growth inhibition (GI),[2],inactive
CC(=O)N1CCN(c2cc3c(cc2F)c(=O)c(C(=O)O)cn3C2CC2)CC1,MBC,Staphylococcus aureus [1],1.9 µM
same,MIC,Staphylococcus aureus [1],≤ 0.48 µM
same,MBC,Enterococcus hirae,7.8 µM
same,MIC,Enterococcus hirae,7.8 µM
same,MBC,Pseudomonas aeruginosa,31.2 µM
same,MIC,Pseudomonas aeruginosa,31.2 µM
same,MBC,Escherichia coli,1.9 µM
same,MIC,Escherichia coli,1.9 µM
same,MBC,Staphylococcus aureus [3],0.97 µM
same,MIC,Staphylococcus aureus [3],0.97 µM
same,MBC,Staphylococcus aureus [4],0.97 µM
same,MIC,Staphylococcus aureus [4],0.48 µM
same,MBC,Staphylococcus aureus [5],500 µM
same,MIC,Staphylococcus aureus [5],62.5 µM
same,MBC,Staphylococcus aureus [6],62.5 µM
same,MIC,Staphylococcus aureus [6],31.2 µM
same,growth inhibition (GI),[2],inactive
CCCC(=O)N1CCN(c2cc3c(cc2F)c(=O)c(C(=O)O)cn3C2CC2)CC1,MBC,Staphylococcus aureus [1],≤ 0.48 µM
same,MIC,Staphylococcus aureus [1],≤ 0.48 µM
same,MBC,Enterococcus hirae,7.8 µM
same,MIC,Enterococcus hirae,7.8 µM
same,MBC,Pseudomonas aeruginosa,250 µM
same,MIC,Pseudomonas aeruginosa,62.5 µM
same,MBC,Escherichia coli,7.8 µM
same,MIC,Escherichia coli,7.8 µM
same,MBC,Staphylococcus aureus [3],0.48 µM
same,MIC,Staphylococcus aureus [3],0.48 µM
same,MBC,Staphylococcus aureus [4],0.48 µM
same,MIC,Staphylococcus aureus [4],0.24 µM
same,MBC,Staphylococcus aureus [5],62.5 µM
same,MIC,Staphylococcus aureus [5],31.2 µM
same,MBC,Staphylococcus aureus [6],62.5 µM
same,MIC,Staphylococcus aureus [6],31.2 µM
same,growth inhibition (GI),[2],inactive
CCCCCCCCCCOC(=O)N1CCN(c2cc3c(cc2F)c(=O)c(C(=O)O)cn3C2CC2)CC1,MBC,Staphylococcus aureus [1],62.5 µM
same,MIC,Staphylococcus aureus [1],62.5 µM
same,MBC,Enterococcus hirae,500 µM
same,MIC,Enterococcus hirae,62.5 µM
same,MBC,Pseudomonas aeruginosa,250 µM
same,MIC,Pseudomonas aeruginosa,125 µM
same,MBC,Escherichia coli,500 µM
same,MIC,Escherichia coli,125 µM
same,growth inhibition (GI),[2],inactive
O=C(CCCCCCCCCCCCCC(=O)OCN1CCN(c2cc3c(cc2F)c(=O)c(C(=O)O)cn3C2CC2)CC1)OCN1CCN(c2cc3c(cc2F)c(=O)c(C(=O)O)cn3C2CC2)CC1,MBC,Staphylococcus aureus [1],≤ 0.48 µM
same,MIC,Staphylococcus aureus [1],≤ 0.12 µM
same,MBC,Enterococcus hirae,15.6 µM
same,MIC,Enterococcus hirae,7.8 µM
same,MBC,Pseudomonas aeruginosa,250 µM
same,MIC,Pseudomonas aeruginosa,62.5 µM
same,MBC,Escherichia coli,62.5 µM
same,MIC,Escherichia coli,31.2 µM
same,MBC,Staphylococcus aureus [3],1.9 µM
same,MIC,Staphylococcus aureus [3],0.48 µM
same,MBC,Staphylococcus aureus [4],0.97 µM
same,MIC,Staphylococcus aureus [4],0.12 µM
same,MBC,Staphylococcus aureus [5],500 µM
same,MIC,Staphylococcus aureus [5],62.5 µM
same,MBC,Staphylococcus aureus [6],62.5 µM
same,MIC,Staphylococcus aureus [6],31.2 µM
same,growth inhibition (GI),[2],inactive
O=C(O)c1cn(C2CC2)c2cc(N3CCN(C(=O)CO)CC3)c(F)cc2c1=O,MBC,Staphylococcus aureus [1],1.9 µM
same,MIC,Staphylococcus aureus [1],≤ 0.97 µM
same,MBC,Enterococcus hirae,7.8 µM
same,MIC,Enterococcus hirae,7.8 µM
same,MBC,Pseudomonas aeruginosa,250 µM
same,MIC,Pseudomonas aeruginosa,15.6 µM
same,MBC,Escherichia coli,1.9 µM
same,MIC,Escherichia coli,≤ 0.97 µM
same,MBC,Staphylococcus aureus [3],1.9 µM
same,MIC,Staphylococcus aureus [3],0.97 µM
same,MBC,Staphylococcus aureus [4],1.9 µM
same,MIC,Staphylococcus aureus [4],0.24 µM
same,MBC,Staphylococcus aureus [5],> 500 µM
same,MIC,Staphylococcus aureus [5],125 µM
same,MBC,Staphylococcus aureus [6],62.5 µM
same,MIC,Staphylococcus aureus [6],62.5 µM
same,growth inhibition (GI),[2],inactive
CCCCC(=O)N1CCN(c2cc3c(cc2F)c(=O)c(C(=O)O)cn3C2CC2)CC1,MBC,Staphylococcus aureus [1],≤ 0.48 µM
same,MIC,Staphylococcus aureus [1],≤ 0.24 µM
same,MBC,Enterococcus hirae,7.8 µM
same,MIC,Enterococcus hirae,7.8 µM
same,MBC,Pseudomonas aeruginosa,250 µM
same,MIC,Pseudomonas aeruginosa,62.5 µM
same,MBC,Escherichia coli,15.6 µM
same,MIC,Escherichia coli,7.8 µM
same,MBC,Staphylococcus aureus [3],0.48 µM
same,MIC,Staphylococcus aureus [3],0.48 µM
same,MBC,Staphylococcus aureus [4],0.48 µM
same,MIC,Staphylococcus aureus [4],0.24 µM
same,MBC,Staphylococcus aureus [5],500 µM
same,MIC,Staphylococcus aureus [5],62.5 µM
same,MBC,Staphylococcus aureus [6],31.2 µM
same,MIC,Staphylococcus aureus [6],31.2 µM
same,growth inhibition (GI),[2],inactive
O=C(CCCCCCCCCCCCCCC(=O)OCN1CCN(c2cc3c(cc2F)c(=O)c(C(=O)O)cn3C2CC2)CC1)OCN1CCN(c2cc3c(cc2F)c(=O)c(C(=O)O)cn3C2CC2)CC1,MBC,Staphylococcus aureus [1],≤ 0.97 µM
same,MIC,Staphylococcus aureus [1],≤ 0.97 µM
same,MBC,Enterococcus hirae,62.5 µM
same,MIC,Enterococcus hirae,31.2 µM
same,MBC,Pseudomonas aeruginosa,250 µM
same,MIC,Pseudomonas aeruginosa,62.5 µM
same,MBC,Escherichia coli,15.6 µM
same,MIC,Escherichia coli,7.8 µM
same,MBC,Staphylococcus aureus [3],15.6 µM
same,MIC,Staphylococcus aureus [3],7.8 µM
same,MBC,Staphylococcus aureus [4],1.9 µM
same,MIC,Staphylococcus aureus [4],0.97 µM
same,MBC,Staphylococcus aureus [5],500 µM
same,MIC,Staphylococcus aureus [5],125 µM
same,MBC,Staphylococcus aureus [6],500 µM
same,MIC,Staphylococcus aureus [6],125 µM
same,growth inhibition (GI),[2],inactive
CCCCCCCCCOC(=O)N1CCN(c2cc3c(cc2F)c(=O)c(C(=O)O)cn3C2CC2)CC1,MBC,Staphylococcus aureus [1],125 µM
same,MIC,Staphylococcus aureus [1],62.5 µM
same,MBC,Enterococcus hirae,250 µM
same,MIC,Enterococcus hirae,62.5 µM
same,MBC,Pseudomonas aeruginosa,250 µM
same,MIC,Pseudomonas aeruginosa,125 µM
same,MBC,Escherichia coli,500 µM
same,MIC,Escherichia coli,125 µM
same,growth inhibition (GI),[2],inactive
